#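 Abbreviation: GI50, concentration required for 50% inhibition of growth. TGI denotes the concentration required for complete inhibition of growth.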
# Columns and labels:
# Assay in all cases: NCI-60 cell line screen, 384-well format
# NCI-H23 lung = test system: NCI-H23 lung
# NCI-H322M lung = test system: NCI-H322M lung
# NCI-H460 NSCLC = test system: NCI-H460 NSCLC
# NCI-H522 lung = test system: NCI-H522 lung
# NCI/ADR-RES ovarian = test system: NCI/ADR-RES ovarian
# OVCAR-3 ovarian = test system: OVCAR-3 ovarian
# OVCAR-4 ovarian = test system: OVCAR-4 ovarian
# OVCAR-5 ovarian = test system: OVCAR-5 ovarian
# OVCAR-8 ovarian = test system: OVCAR-8 ovarian
# PC-3 prostate = test system: PC-3 prostate
# RPMI-8226 leukemia = test system: RPMI-8226 leukemia
# RXF 393 renal = test system: RXF 393 renal
# SF-268 CNS = test system: SF-268 CNS
# SF-295 CNS = test system: SF-295 CNS
# SF-539 CNS = test system: SF-539 CNS
# SK-MEL-2 melanoma = test system: SK-MEL-2 melanoma
# SK-MEL-28 melanoma = test system: SK-MEL-28 melanoma
# SK-MEL-5 melanoma = test system: SK-MEL-5 melanoma
# SK-OV-3 ovarian = test system: SK-OV-3 ovarian
# SN12C renal = test system: SN12C renal
# SNB-19 CNS = test system: SNB-19 CNS
# SNB-75 CNS = test system: SNB-75 CNS
# SR leukemia = test system: SR leukemia
# SW-620 colon = test system: SW-620 colon
# T-47D breast = test system: T-47D breast
# TK-10 renal = test system: TK-10 renal
# U251 glioblastoma = test system: U251 glioblastoma
# UACC-257 melanoma = test system: UACC-257 melanoma
# UACC-62 melanoma = test system: UACC-62 melanoma
structure (smiles),measurement,setting,value
Nc1ncn([C@H]2CC(O)[C@@H](CO)S2)c(=O)n1 (stereo partly drawn),GI50,NCI-H23 lung,0.272 µM
same,TGI,NCI-H23 lung,1.8 µM
same,GI50,NCI-H322M lung,1.32 µM
same,TGI,NCI-H322M lung,> 100 µM
same,GI50,NCI-H460 NSCLC,0.0399 µM
same,TGI,NCI-H460 NSCLC,0.491 µM
same,GI50,NCI-H522 lung,0.0501 µM
same,TGI,NCI-H522 lung,0.529 µM
same,GI50,NCI/ADR-RES ovarian,0.139 µM
same,TGI,NCI/ADR-RES ovarian,1.26 µM
same,GI50,OVCAR-3 ovarian,0.461 µM
same,TGI,OVCAR-3 ovarian,7.09 µM
same,GI50,OVCAR-4 ovarian,2.61 µM
same,TGI,OVCAR-4 ovarian,> 100 µM
same,GI50,OVCAR-5 ovarian,3.19 µM
same,TGI,OVCAR-5 ovarian,> 100 µM
same,GI50,OVCAR-8 ovarian,0.0822 µM
same,TGI,OVCAR-8 ovarian,2.69 µM
same,GI50,PC-3 prostate,1.27 µM
same,TGI,PC-3 prostate,> 75.1 µM
same,GI50,RPMI-8226 leukemia,0.622 µM
same,TGI,RPMI-8226 leukemia,2.68 µM
same,GI50,RXF 393 renal,0.839 µM
same,TGI,RXF 393 renal,15.1 µM
same,GI50,SF-268 CNS,1.24 µM
same,TGI,SF-268 CNS,24 µM
same,GI50,SF-295 CNS,7.65 µM
same,TGI,SF-295 CNS,> 74.7 µM
same,GI50,SF-539 CNS,2.02 µM
same,TGI,SF-539 CNS,45 µM
same,GI50,SK-MEL-2 melanoma,0.253 µM
same,TGI,SK-MEL-2 melanoma,0.691 µM
same,GI50,SK-MEL-28 melanoma,0.34 µM
same,TGI,SK-MEL-28 melanoma,2.75 µM
same,GI50,SK-MEL-5 melanoma,0.0706 µM
same,TGI,SK-MEL-5 melanoma,1.33 µM
same,GI50,SK-OV-3 ovarian,1.82 µM
same,TGI,SK-OV-3 ovarian,33.6 µM
same,GI50,SN12C renal,0.251 µM
same,TGI,SN12C renal,> 39.9 µM
same,GI50,SNB-19 CNS,0.442 µM
same,TGI,SNB-19 CNS,> 100 µM
same,GI50,SNB-75 CNS,7.75 µM
same,TGI,SNB-75 CNS,> 74.1 µM
same,GI50,SR leukemia,0.123 µM
same,TGI,SR leukemia,0.808 µM
same,GI50,SW-620 colon,0.377 µM
same,TGI,SW-620 colon,16.2 µM
same,GI50,T-47D breast,7.69 µM
same,TGI,T-47D breast,> 100 µM
same,GI50,TK-10 renal,4.22 µM
same,TGI,TK-10 renal,> 100 µM
same,GI50,U251 glioblastoma,1.92 µM
same,TGI,U251 glioblastoma,24.8 µM
same,GI50,UACC-257 melanoma,4.76 µM
same,TGI,UACC-257 melanoma,21.4 µM
same,GI50,UACC-62 melanoma,1.23 µM
same,TGI,UACC-62 melanoma,17.3 µM
